Source: patent US12708611B2, “Diagnostic and drug screening for molecular signatures of early onset sporadic parkinson's disease” (CEDARS-SINAI MEDICAL CENTER, priority 2018, dated 2026)
Entries after “also recorded” stand apart in the source; their conditions may differ. Where a SMILES comes first, the peptide text is derived from it. The star is where a group is joined. Cbz = O=C(OCc1ccccc1)*

Assays:
P53 = assay: Proteasome inhibition of DaN cultures, P53 western blot; format: cell-based, human; conditions: DaN cultures treated 24 hrs
Text: (§1) Protein degradation can be largely divided into protosomal and autophagy/lysosomal degradation pathways.

α-Synuclein [1] = assay: Proteasome inhibition of DaN cultures, α-Synuclein western blot; format: cell-based, human; conditions: DaN cultures treated 24 hrs
Text: as §1

synuclein = assay: Injection into ventricles of WT mice, synuclein in striatum; format: in vivo, mouse; conditions: WT mice, 0.3, 3, and 30 uM injected into ventricles, 1 and 5 days post injection
Procedure: (§2) In vivo, PEP stimulates synuclein degradation. Dosage studies of 0.3, 3, and 30 uM PEP was injected into the ventricles of WT mice.

LAMP1 = assay: Western blot of LAMP1 in PEP-treated DaNs; format: cell-based, human; conditions: for LAMP1 response to treatment: PD cells
Text: (§3) The elevated phosphorylation of PKCa was absent in the undifferentiated iPSCs and no clear pattern was evident in peripheral blood from the individual patients indicating specificity to the differentiated DaNs.
PEP is described as both an activator of the pro-apoptotic […] and an inhibitor of PKCα.

cleaved caspase 3 (CC3) = assay: Cleaved caspase 3 in time-course of PEP treatment of DaNs; format: cell-based, human; conditions: PD cells, on drug treatment; listed as PEP
Text: as §3
(§4) It is likely that the toxicity of PEP is more specific to highly proliferative cells whereas our differentiated neurons are largely post mitotoic.

DaN cultures = assay: LDH on drug treatment of DaN cultures (cell death); format: cell-based, human
Text: as §4

TH enzyme = assay: Western blot of TH enzyme in treated DaNs; format: cell-based, human; conditions: both control and PD DaNs
Procedure: (§5) To test if the Inventors could reduce synuclein levels in our EOSPD DANs through activation of lysosomal specific pathways, the Inventors selected 3 lysosomal agonists. […] Starting at day 27, DaNs were treated for 3 days with the above lysosomal agonists.

SNCA = SNCA gene expression along time-course of PEP treatment; format: cell-based, human; conditions: paired time-course samples
Text: as §3

[2] = system: various cancer cell lines and primary acute myeloid leukaemia (AML) cells; conditions: cited from earlier work
TH [3] = assay: Injection into ventricles of WT mice, TH in striatum; format: in vivo, mouse; conditions: WT mice, 0.3, 3, and 30 uM injected into ventricles, 1 and 5 days post injection
Procedure: as §2

α-Synuclein [4] = assay: Western blot of α-Synuclein in iPSC-derived DaNs treated with lysosomal agonists; format: cell-based, human; conditions: for amount of α-Synuclein protein: DaNs from control lines
Procedure: as §5, §3

TH [5] = assay: TH gene expression along time-course of PEP treatment; format: cell-based, human; conditions: paired time-course samples
Text: as §3

[6] = PKC delta signal in DaN cultures on drug treatment; format: cell-based, human
Text: as §4

PKC C1 domains = conditions: cited from earlier work
LC3 = assay: Western blot of LC3 in PEP-treated DaNs; format: cell-based, human; conditions: PD cells
Text: as §3

p-PKCa = assay: Western blot of phosphorylated PKC alpha in treated DaNs; format: cell-based, human
Text: as §3

PC12 cell model = conditions: cited from earlier work
[7] = treated 3 days starting at day 27
[8] = time-course, control and PD DaNs

## CC(C)C[C@@H](C=O)NC(=O)[C@H](CC(C)C)NC(=O)[C@H](CC(C)C)NC(=O)OCc1ccccc1 [MG132] (Cbz-Leu-Leu-Leu-aldehyde)
P53
  P53 level: accumulation of P53
α-Synuclein [1]
  α-Synuclein levels: no substantial change

## C/C=C(/C)C(=O)O[C@H]1C(C)=C[C@]23C(=O)[C@@H](C=C(CO)[C@@H](O)[C@]12O)[C@H]1[C@@H](C[C@H]3C)C1(C)C [PEP005, ingenol-3-angelate]
synuclein
  synuclein in mouse striatum: Reduction of synuclein
LAMP1
  LAMP1 response to treatment: does not appear to be replicated
LAMP1; listed as PEP
  LAMP1 response to treatment: neither LAMP1 nor LC3 respond
LAMP1; control cells
  lysosomal protein LAMP1: increase
Cleaved caspase 3 (CC3)
  cleaved caspase 3 (CC3) present: marked decrease; also recorded: decrease in the amount of active caspase 3
DaN cultures
  LDH on drug treatment: nor do the Inventors see an increase in LDH
TH enzyme
  amount of TH enzyme present: increased amount of TH enzyme present
TH enzyme; listed as PEP
  amount of TH enzyme present: increase in the amount of TH
SNCA
  time after treatment at which SNCA is downregulated: 4 h
[2]; leukemic cell lines and primary AML cells
  apoptosis: induces apoptosis
[2]; various cancer cell lines and primary AML cells
  proliferation: inhibiting proliferation
TH [3]
  TH in mouse striatum: increase in TH
α-Synuclein [4]; [7]
  amount of α-Synuclein protein: significantly reduced
α-Synuclein [4]; ESOPD DaNs, treated 3 days starting at day 27
  synuclein levels: substantially reduced
α-Synuclein [4]; both control and PD DaNs
  α-Synuclein levels: reduced
α-Synuclein [4]; luM PEP005 for 3 days, all treated lines
  synuclein: reduced synuclein
α-Synuclein [4]; [8]
  time until α-Synuclein is degraded in response to drug treatment: ≤ 24 h
TH [5]
  time after initial exposure at which TH is upregulated: roughly 8 hours
[6]
  PKC6 signal: did not observe a strong PKC6 signal
PKC C1 domains
  affinity for PKC C1 domains: subnanomolar affinity
PKC C1 domains; in vitro
  selectivity for individual PKC isoforms: no selectivity
LC3
  LC3 response to treatment: neither LAMP1 nor LC3 respond
p-PKCa; control and PD DaNs, at endpoint
  PKC alpha phosphorylation signal: completely ablating this signal
p-PKCa; luM PEP005 for 3 days, DaNs from all iPSC lines
  elevated phosphorylation of PKCa: clearly ablated
p-PKCa; [8]
  time until p-PKCa is degraded in response to drug treatment: ≤ 24 h

## C=CCNc1ncnc2ccc(Br)cc12 [SMER28]
α-Synuclein [4]; [7]
  amount of α-Synuclein protein: significantly reduced
PC12 cell model
  Huntington and α-Synuclein aggregates: reduce Huntington and α-Synuclein aggregates

## OC[C@H]1O[C@H](O[C@H]2O[C@H](CO)[C@@H](O)[C@H](O)[C@H]2O)[C@H](O)[C@@H](O)[C@@H]1O [Trehalose]
α-Synuclein [4]; [7]
  amount of α-Synuclein protein: not Trehalose significantly reduced
